Experimental data: US20100068793A1, “DEVICES AND METHODS FOR PRODUCTION OF CELL AGGREGATES” (priority 2007, published 2010)
Entries after “also recorded” stand apart in the source; their conditions may differ.

What was measured:
hESC [1] = assay: Forced aggregation of hESC with or without ROCK inhibitor Y-27632; type: cell-based, human
Procedure: d) form aggregates in the presence of 10 μM Y27632 5. Suspend cells in X-vivo10 or other medium of interest at a concentration appropriate to the desired EB size and plate format (e.g. to form aggregates from 10,000 cells in 100 μL medium each in 96-well plates, suspend 1 million cells in 10 mL; for aggregates from 2,000 cells in 25 μL medium each in 384-well plates, suspend 0.8 million cells in 10 mL. NB multichannel pipettes or automated liquid handling systems often require a minimum “dead volume”, thus it may be necessary to make 10-20% additional volume of suspension depending on the specifics of the equipment employed. 6. Dispense the cell suspension into the well plates prepared in step 2. 7. Centrifuge for 5 minutes at 240×g 8. Incubate overnight at 37 degrees, 5% CO2 in a standard tissue culture incubator. 9. Recover EBs by pipetting using large-bore or cut-off pipette tips or by inverted centrifugation in the device described and illustrated in FIG. 1 or 2 for 1 minute at 20×g hESC were cultured on Matrigel in conditioned medium or with 48 hours of pre-differentiation in serum-containing medium, and were subjected to the forced aggregation protocol at 2,000 cells per well with or without addition of 10 μM of the ROCK inhibitor Y-27632. […] In the absence of both, no aggregates were formed (N.D.—size not determined). […]

hESC [2] = assay: Aggregate formation from hESC cultured on Matrigel after BMP pre-differentiation; type: cell-based, human; conditions: 50 ng/mL BMP4 pre-differentiation, control without BMP4 formed no aggregates
Procedure: Prepare a single-cell suspension by treating the hESC culture with TrypIE for 5 minutes, and washing the cells off with X-Vivo10
Count cells, spin down and re-suspend to 1 million cells/mL in X-Vivo or other medium of interest. Cells may all derive from a single culture, or cells from different sources may be combined.

Compound	aggregate size and symmetry (hESC [1]; 10 μM Y-27632, hESC cultured on Matrigel, 2,000 cells per well, with or without 48 hours pre-differentiation in serum-containing medium)	aggregate formation / stability (SISO-aggregates, cross-sectional area) (hESC [1]; 10 μM Y-27632 added to cell suspension immediately prior to dispensing, hESC on Matrigel in MEF-conditioned medium, with or without 48 hours predifferentiation in 20% serum)	stable aggregate formation after BMP4 pre-differentiation (hESC [2])
C[C@@H](N)[C@H]1CC[C@H](C(=O)Nc2ccncc2)CC1 [Y-27632]	size and symmetry of aggregates are improved; also recorded: substantially increased aggregate size and symmetry	sizeable aggregates resulted	
BMP4: bone morphogenetic protein growth factor used for pre-differentiation			Aggregates formed from the pre-differentiated population
